Data reported in patent publication US20180251431A1 (VERTEX PHARMACEUTICALS INCORPORATED, priority 2016, published 2018).
Like-named read-outs stand apart in the source and are kept apart here.

System: HEK293 cells
Test: HEK293 VLCFA-LPC IC50 determination (13C-labeled C26:0 LPC by UHPLC/MS)
Assay type: cell-based, human
Conditions: Homo sapiens, average of one or more replicates, read-out: Average HEK293 IC50
Outline: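 Suspension HEK293 cells (final 0.5 million/mL after mixing with equal volume) incubated 48 hours with compound plus 13C-acetate (1.0 mg/mL in added media), shaking at 37° C. Lipids extracted with hexane/isopropanol or methanol, C13:0 LPC standard. UHPLC/MS of 13C-labeled C26:0 LPC (638.500/104.100 m/z); IC50 by four-parameter fit.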

[1] = HEK293, 48 h, 13C-labeled C26:0 LPC, 48 hours

O=C(Nc1ccn(-c2ccncc2)n1)C1(c2cnccn2)CC1 [Compound 495, 1-pyrazin-2-yl-N-[1-(4-pyridyl)pyrazol-3-yl]cyclopropanecarboxamide]
IC50 (HEK293, HEK293 cells): > 5000 nM

Cc1ncc(-n2ccc(NC(=O)C3(c4ccccc4F)CC3)n2)cc1F [Compound 349, N-[1-(5-fluoro-6-methyl-3-pyridyl)pyrazol-3-yl]-1-(2-fluorophenyl)cyclopropanecarboxamide]
IC50 [1]: 440 nM

COc1ccc(CC(=O)Nc2ccn(-c3ccccc3)n2)cc1C [Compound 62, 2-(4-methoxy-3-methyl-phenyl)-N-(1-phenylpyrazol-3-yl)acetamide]
IC50 (HEK293, HEK293 cells): 3700 nM

O=C(Nc1ccn(-c2ccccc2)n1)C1(c2ccccc2)CCOCC1 [Compound 178, 4-phenyl-N-(1-phenylpyrazol-3-yl)tetrahydropyran-4-carboxamide]
IC50 (HEK293, HEK293 cells): > 5000 nM

COc1cc(-n2ccc(NC(=O)C3(c4ccccc4F)CC3)n2)ccc1F [Compound 468, N-[1-(4-fluoro-3-methoxy-phenyl)pyrazol-3-yl]-1-(2-fluorophenyl)cyclopropanecarboxamide]
IC50 (HEK293, HEK293 cells): > 5000 nM

Cc1ccncc1-n1ccc(NC(=O)C2(c3ccccc3F)CC2)n1 [Compound 472, 1-(2-fluorophenyl)-N-[1-(4-methyl-3-pyridyl)pyrazol-3-yl]cyclopropanecarboxamide]
IC50 (HEK293, HEK293 cells): 56 nM

O=C(Nc1ccn(-c2ccccc2)n1)C1(c2ccc3c(c2)OC(F)(F)O3)CC1 [Compound 292, 1-(2,2-difluoro-1,3-benzodioxo1-5-yl)-N-(1-phenylpyrazol-3-yl)cyclopropanecarboxamide]
IC50 (HEK293, HEK293 cells): 85 nM

O=C(Nc1ccn(-c2ccccc2)n1)C1(c2ccc(Cl)cc2)CC1 [Compound 23, 1-(4-chlorophenyl)-N-(1-phenylpyrazol-3-yl)cyclopropanecarboxamide]
IC50 (HEK293, HEK293 cells): 830 nM

O=C(Nc1ccn(-c2ccnc(F)c2)n1)C1(c2cccc(F)c2F)CC1 [Compound 268, 1-(2,3-difluorophenyl)-N-[1-(2-fluoro-4-pyridyl)pyrazol-3-yl]cyclopropanecarboxamide]
IC50 (HEK293, HEK293 cells): 140 nM

COc1cc(-n2ccc(NC(=O)C3(c4ncccc4F)CC3C)n2)ccn1 (stereo not drawn) [Compound 510, 1-(3-fluoro-2-pyridyl)-N-[1-(2-methoxy-4-pyridyl)pyrazol-3-yl]-2-methyl-cyclopropanecarboxamide]
IC50 (HEK293, HEK293 cells): 670 nM

O=C(Cc1ccccc1)Nc1ccn(-c2ccc(Cl)cc2)n1 [Compound 134, N-[1-(4-chlorophenyl)pyrazol-3-yl]-2-phenyl-acetamide]
IC50 (HEK293, HEK293 cells): > 5000 nM

Nc1ccc(-n2ccc(NC(=O)C3(c4ccccc4F)CC3)n2)cc1F [Compound 387, N-[1-(4-amino-3-fluoro-phenyl)pyrazol-3-yl]-1-(2-fluorophenyl)cyclopropanecarboxamide]
IC50 [1]: 1100 nM

O=C(Cc1ccccc1F)Nc1ccn(-c2ccc(Cl)cc2)n1 [Compound 133, N-[1-(4-chlorophenyl)pyrazol-3-yl]-2-(2-fluorophenyl)acetamide]
IC50 (HEK293, HEK293 cells): > 5000 nM

Cc1cc(-n2ccc(NC(=O)Cc3ccccc3F)n2)ccn1 [Compound 110, 2-(2-fluorophenyl)-N-[1-(2-methyl-4-pyridyl)pyrazol-3-yl]acetamide]
IC50 (HEK293, HEK293 cells): > 10000 nM

Cc1ccc(-n2ccc(NC(=O)Cc3ccccc3F)n2)cn1 [Compound 119, 2-(2-fluorophenyl)-N-[1-(6-methyl-3-pyridyl)pyrazol-3-yl]acetamide]
IC50 (HEK293, HEK293 cells): 3500 nM

O=C(Cc1ccccc1F)Nc1ccn(-c2cccc(F)c2)n1 [Compound 126, 2-(2-fluorophenyl)-N-[1-(3-fluorophenyl)pyrazol-3-yl]acetamide]
IC50 (HEK293, HEK293 cells): 500 nM

O=C(Nc1ccn(-c2ncns2)n1)C1(c2ccccc2F)CC1 [Compound 406, 1-(2-fluorophenyl)-N-[1-(1,2,4-thiadiazol-5-yl)pyrazol-3-yl]cyclopropanecarboxamide]
IC50 [1]: 18 nM

O=C(Nc1ccn(-c2ccncc2)n1)C1(c2ccccc2)CC1 [Compound 100, 1-phenyl-N-[1-(4-pyridyl)pyrazol-3-yl]cyclopropanecarboxamide]
IC50 (HEK293, HEK293 cells): 33 nM

O=C(Cc1cc(C(F)(F)F)cc(C(F)(F)F)c1)Nc1ccn(-c2ccccc2)n1 [Compound 73, 2-[3,5-bis(trifluoromethyl)phenyl]-N-(1-phenylpyrazol-3-yl)acetamide]
IC50 (HEK293, HEK293 cells): > 5000 nM

Cc1cc(-n2ccc(NC(=O)C3(c4ccccc4F)CC3)n2)cnc1F [Compound 376, N-[1-(6-fluoro-5-methyl-3-pyridyl)pyrazol-3-yl]-1-(2-fluorophenyl)cyclopropanecarboxamide]
IC50 [1]: 65 nM

O=C(Cc1ccccc1F)Nc1ccn(-c2ccncc2)n1 [Compound 14, 2-(2-fluorophenyl)-N-[1-(4-pyridyl)pyrazol-3-yl]acetamide]
IC50 (HEK293, HEK293 cells): 580 nM

O=C(Nc1ccn(-c2ccnc(F)c2)n1)C1(c2ccccc2)CC1(F)F (single isomer, unassigned) [Compound 368]
IC50 [1]: 32 nM

O=C(Cc1cccnc1)Nc1ccn(-c2ccccc2)n1 [Compound 39, N-(1-phenylpyrazol-3-yl)-2-(3-pyridyl)acetamide]
IC50 (HEK293, HEK293 cells): > 5000 nM

CN(C(=O)Cc1ccccc1F)c1ccn(-c2ccccc2)n1 [Compound 362, 2-(2-fluorophenyl)-N-methyl-N-(1-phenyl-1H-pyrazol-3-yl)acetamide]
IC50 [1]: > 5000 nM

O=C(Cc1ccccc1F)Nc1ccn(-c2ncccc2F)n1 [Compound 94, 2-(2-fluorophenyl)-N-[1-(3-fluoro-2-pyridyl)pyrazol-3-yl]acetamide]
IC50 (HEK293, HEK293 cells): > 10000 nM

Cc1cc(-n2ccc(NC(=O)C3(c4ccccc4F)CC3)n2)sn1 [Compound 401, 1-(2-fluorophenyl)-N-[1-(3-methylisothiazol-5-yl)pyrazol-3-yl]cyclopropanecarboxamide]
IC50 [1]: 2300 nM

Cc1cc(C)cc(C2(C(=O)Nc3ccn(-c4ccnc(F)c4)n3)CC2)c1 [Compound 248, 1-(3,5-dimethylphenyl)-N-[1-(2-fIuoro-4-pyridyl)pyrazol-3-yl]cyclopropanecarboxamide]
IC50 (HEK293, HEK293 cells): > 5000 nM

O=C(Cc1ccc(F)cc1)Nc1ccn(-c2ccncc2)n1 [Compound 102, 2-(4-fluorophenyl)-N-[1-(4-pyridyl)pyrazol-3-y]+acetamide]
IC50 (HEK293, HEK293 cells): 3600 nM

O=C(Nc1ccn(-c2ccnc(F)c2)n1)C1(c2c(F)cccc2F)CC1 [Compound 266, 1-(2,6-difluorophenyl)-N-[1-(2-fluoro-4-pyridyl)pyrazol-3-yl]cyclopropanecarboxamide]
IC50 (HEK293, HEK293 cells): 17 nM

O=C(Cc1ccccc1F)Nc1ccn(-c2cncnc2)n1 [Compound 15, 2-(2-fluorophenyl)-N-(1-pyrimidin-5-ylpyrazol-3-yl)acetamide]
IC50 (HEK293, HEK293 cells): 1000 nM

O=C(Nc1ccn(-c2cc(F)cc(F)c2)n1)C1(c2ccccc2F)CC1 [Compound 301, N-[1-(3,5-difluorophenyl)pyrazol-3-yl]-1-(2-fluorophenyl)cyclopropanecarboxamide]
IC50 (HEK293, HEK293 cells): 140 nM

O=C(Nc1ccn(-c2cnc(Cl)s2)n1)C1(c2ccccc2F)CC1 [Compound 410, N-[1-(2-chlorothiazol-5-yl)pyrazol-3-yl]-1-(2-fluorophenyl)cyclopropanecarboxamide]
IC50 (HEK293, HEK293 cells): 100 nM

CC(C)(C)c1ncc(-n2ccc(NC(=O)C3(c4ccccc4F)CC3)n2)cn1 [Compound 383, N-[1-(2-tert-butylpyrimidin-5-yl)pyrazol-3-yl]-1-(2-fluorophenyl)cyclopropanecarboxamide]
IC50 [1]: > 5000 nM
